Data published in patent US4826994A, “Production of substituted 1,3,4,9-tetrahydropyrano(3,4-B)indole-1-acetic acids” (American Home Products Corporation, priority 1988, dated 1989).

Legend:
[1] = Preventative Adjuvant Edema (acute anti-inflammatory effect in rats); assay type: in vivo, Male Sprague Dawley rats; settings: for inhibition in vivo at 25 mg/kg / Preventative Adjuvant Edema, percent inhibition: p.o., 25 mg/kg; for inhibition in vivo at 25 mg/kg: read-out: Preventative Adjuvant Edema, percent inhibition
Experimental: This test is a primary screen for anti-inflammatory drugs.
Male Sprague Dawley rats (180-200 g) are used. The animals have free access to water but food is withdrawn 18 hours before testing.
Drug Preparations and Administration:
Freund's complete adjuvant is prepared by suspending 5 mg of killed and dried Mycobacterium butyricum (Difco) in 1 mL mineral oil. The test compounds are dissolved, of suspended in 0.5% Tween 80 in distilled water according to their solubility. For primary screening all drugs are administered by gastric lavage at the arbitrary dosage of 25 mg/kg, p.o. in a volume of 0.5 mL/100 g body weight to groups of 10 animals.
The method is essentially that described by Wax et al, J. Pharmacol. Exp. Ther., 192, 166-171 (1975). Groups of rats are injected intradermally in the left hind paw with 0.1 mL of Freund's complete adjuvant. The test compound or vehicle is administered immediately before the adjuvant, 24 hours and 48 hours after the adjuvant (days 0, 1 and 2). The injected hind paw volume is measured before the injection of adjuvant and 24 hrs. after the last drug administration (day 3) by means of a plethysmometer (Buxco Electronics Inc.). The difference between the hind paw volume on day 0 and day 3 represents the edema volume. Etodolac (25 mg/kg, p.o.) is included as a positive control.
The mean edema volume (expressed as mL±SEM) is calculated for each group and the percentage protection conferred by the drug is calculated: [formula] where c is the mean edema volume for the vehicle-treated (0.5% Tween 80 in distilled water) controls and t is the mean edema volume for the drug treated group.

[2] = Drug Effects on Phenylbenzoquinone-induced Writhing in Mice; assay type: in vivo, Male Swiss albino mice; settings: for inhibition in vivo at 25 mg/kg / ED50: Mus musculus, po; for inhibition in vivo at 25 mg/kg: read-out: Phenylquinone Writhing in Mice, percent inhibition; for ED50: value in parentheses, read-out: Phenylquinone Writhing in Mice, ED50
Experimental: A further test used to determine the utility of the compounds of the present invention is designated: Drug Effects on Phenylbenzoquinone-induced Writhing in Mice
The objective of this test is to determine the ability of test drugs to inhibit the nociceptive (pain) response of mice injected with a chemical irritant. This test is a primary screen for both peripheral and centrally acting analgesic drugs.
Male Swiss albino mice (15-25 g). The animals are fasted for 18 hours prior to use but have free access to water.
Drug Preparation and Administration:
Drugs are dissolved or suspended according to their solubility in 0.5% Tween 80 in distilled water. They are administered by gastric gavage in a volume of 5 mL/kg. For primary screening all drugs are administered at the arbitrary dosage of 25 mg/kg, p.o. to a group of 10 mice.
A modification of the method of Siegmund et al, Proc. Soc. Exp. Biol. Med., 95, 729-731 (1957) is used. Groups of 5 mice are dosed with the test compound or vehicle control. Sixty minutes later the animals are injected i.p. with 0.3 mL/20 g body weight of a 0.02% solution of phenylbenzoquinone (PBQ; 2-phenyl-1,4-benzoquinone) and placed in individual observation boxes. The number of writhing or abdominal squirming movements made by each mouse during the following 15 min. period is counted. The experiment is repeated with another group of 5 mice and the mean number of writhes per mouse for a group of 10 mice is calculated.
Drug treated and vehicle-treated control groups are compared and the percentage protection conferred by the drug is calculated: [formula] where c=mean number of writhes in the control group where t=mean number of writhes in the test drug group

Compound	inhibition in vivo at 25 mg/kg ([1]; Rattus norvegicus, po, 72 h)	inhibition in vivo at 25 mg/kg ([2]; 25 mg/kg, p.o.)	also measured
C=CCC1COC(CC)(CC(=O)O)c2[nH]c3c(CC)cccc3c21 (single isomer, unassigned) [Example 11, 1,8-diethyl-1,3,4,9-tetrahydro-4-(2-propenyl)-pyrano[3,4-b]indole-1-acetic acid]	55%	11%	
C=CCC1COC(CC)(CC(=O)O)c2[nH]c3c(CCC)cccc3c21 (single isomer, unassigned) [Example 13, 1-ethyl-1,3,4,9-tetrahydro-4-(2-propenyl)-8-propyl-pyrano[3,4-b]indole-1-acetic acid]	36%	2%	
C=CCC1COC(CC)(CC(=O)O)c2[nH]c3ccccc3c21 (single isomer, unassigned) [Example 14]	46%	21%	
C=CCC1COC(CC)(CC(=O)O)c2[nH]c3ccccc3c21 (single isomer, unassigned) [Example 15]			Preventative Adjuvant Edema, percent inhibition [1]: 30%; Phenylquinone Writhing in Mice, percent inhibition ([2]; 25 mg/kg, p.o.): 25%
C=CCC1COC(CC)(CC(=O)O)c2[nH]c3c(C)c(Cl)ccc3c21 (single isomer, unassigned) [Example 17, 7-chloro-1-ethyl-1,3,4,9-tetrahydro-8-methyl-4-(2-propenyl)-pyrano[3,4-b]indole-1-acetic acid]	44%	11%	
CCC1(CC(=O)O)OCC(Cc2ccccc2)c2c1[nH]c1c(C)c(Cl)ccc21 (single isomer, unassigned) [Example 20, 7-chloro-1-ethyl-1,3,4,9-tetrahydro-8-methyl-4-(phenylmethyl)-pyrano[3,4-b]indole-1-acetic acid]		11%	Preventative Adjuvant Edema, percent inhibition [1]: 34%
CCC1(CC(=O)O)OCC(Cc2ccccc2)c2c1[nH]c1c(C)cccc21 (single isomer, unassigned) [Example 21, 1-ethyl-1,3,4,9-tetrahydro-8-methyl-4-(phenylmethyl)-pyrano[3,4-b]indole-1-acetic acid]	40%	11%	
CCC1(CC(=O)O)OCC(Cc2ccccc2)c2c1[nH]c1c(Cl)ccc(C)c21 (single isomer, unassigned) [Example 23, 8-chloro-1-ethyl-1,3,4,9-tetrahydro-5-methyl-4-(phenylmethyl)-pyrano[3,4-b]indole-1-acetic acid]			Preventative Adjuvant Edema, percent inhibition [1]: 0%; ED50 [2]: 1.4 mg/kg
CCC1(CC(=O)O)OCC(Cc2ccccc2)c2c1[nH]c1c(Cl)ccc(C)c21 (single isomer, unassigned) [Example 24, 8-chloro-1-ethyl-1,3,4,9-tetrahydro-5-methyl-4-(phenylmethyl)-pyrano[3,4-b]indole-1-acetic acid]		0%	Preventative Adjuvant Edema, percent inhibition [1]: 2%
CCC1(CC(=O)O)OCC(Cc2ccccc2)c2c1[nH]c1ccc(Br)cc21 (single isomer, unassigned) [Example 25, 6-bromo-1-ethyl-1,3,4,9-tetrahydro-4-(phenylmethyl)-pyrano[3,4-b]indole-1-acetic acid]			ED50 [2]: 3.1 mg/kg
CCC1(CC(=O)O)OCC(Cc2ccccc2)c2c1[nH]c1ccc(Br)cc21 (single isomer, unassigned) [Example 26, 6-bromo-1-ethyl-1,3,4,9-tetrahydro-4-(phenylmethyl)-pyrano[3,4-b]indole-1-acetic acid]		10%	
C=CCC1COC(CC)(CC(=O)O)c2[nH]c3ccc(F)cc3c21 (single isomer, unassigned) [Example 27]		24%	
CCC1(CC(=O)O)OCC(Cc2ccccc2)c2c1[nH]c1c(C)ccc(Cl)c21 (single isomer, unassigned) [Example 29, 5-chloro-1-ethyl-1,3,4,9-tetrahydro-8-methyl-4-(phenylmethyl)-pyrano[3,4-b]indole-1-acetic acid]			ED50 [2]: 3.2 mg/kg
CCC1(CC(=O)O)OCC(Cc2ccccc2)c2c1[nH]c1cc(Cl)ccc21 (single isomer, unassigned) [Example 34, 7-chloro-1-ethyl-1,3,4,9-tetrahydro-4-(phenylmethyl)-pyrano[3,4-b]indole-1-acetic acid]			ED50 [2]: 1.4 mg/kg
CCC1(CC(=O)O)OCC(Cc2ccc(Cl)cc2)c2c1[nH]c1ccccc21 (single isomer, unassigned) [Example 40]	60%	47%	
CCC1(CC(=O)O)OCC(Cc2ccc(OC)cc2)c2c1[nH]c1ccccc21 (single isomer, unassigned) [Example 41]		30%	
C=CCC1COC(CC)(CC(=O)O)c2[nH]c3c(C)c(F)ccc3c21 (single isomer, unassigned; isomer a) [Example 6, 1-Ethyl-7-fluoro-1,3,4,9-tetrahydro-8-methyl-4-(2-propenyl)pyrano[3,4-b]indole-1-acetic Acid (Isomer A)]			ED50 ([1]; Rattus norvegicus, po, 72 h, value in parentheses): 3.2 mg/kg; ED50 [2]: 18 mg/kg
CCC1(CC(=O)O)OCC(Cc2ccccc2)c2c1[nH]c1ccccc21 (single isomer, unassigned; isomer b) [Example 3, 1-Ethyl-1,3,4,9-tetrahydro-4-(phenylmethyl)-pyrano[3,4-b]indole-1-acetic Acid (Isomer B)]		19%	
CCc1cccc2c3c([nH]c12)C(CC)(CC(=O)O)OCC3Cc1ccccc1 (single isomer, unassigned; isomer b) [Example 5, 1,8-Diethyl-1,3,4,9-tetrahydro-4-(phenylmethyl-pyrano[3,4-b]indole-1-aceticAcid (Isomer B)]			Preventative Adjuvant Edema, percent inhibition [1]: 4%
C=CCC1COC(CC)(CC(=O)O)c2[nH]c3c(C)c(F)ccc3c21 (single isomer, unassigned; isomer b) [Example 7, 1-Ethyl-7-fluoro-1,3,4,9-tetrahydro-8-methyl-4-(2-propenyl)pyrano[3,4-b]indole-1-acetic Acid (Isomer B)]	37%	15%	
